Tested on: MV-4-11 cells
Assay: Gene expression microarray analysis (Affymetrix PrimeView) and GSEA
Format: cell-based, human
Parameters: RFU PODN (11730768_x_at) / Fold change /veh PODN (11730768_x_at) / RFU LINC00158 (11744669_a_at) / Fold change /veh LINC00158 (11744669_a_at) / RFU DUSP10 (11751237_a_at) / Fold change /veh DUSP10 (11751237_a_at) / RFU ID3 (11757404_x_at) / Fold change /veh ID3 (11757404_x_at) / RFU PLEKHG5 (11737974_s_at) / Fold change /veh PLEKHG5 (11737974_s_at) / RFU LRRC4B (11730491_at) / Fold change /veh LRRC4B (11730491_at) / RFU GIMAP4 (11747438_a_at) / Fold change /veh GIMAP4 (11747438_a_at) / RFU KRT8 (11758183_x_at) / Fold change /veh KRT8 (11758183_x_at) / RFU CNN1 (11734310_a_at) / Fold change /veh CNN1 (11734310_a_at) / RFU VPS37D (11726825_at) / Fold change /veh VPS37D (11726825_at) / RFU C10orf10 (11716522_x_at) / Fold change /veh C10orf10 (11716522_x_at) / RFU KIR2DL2 /// KIR2DL4 /// KIR2DL5A /// KIR2DL5B /// KIR2DS1 /// KIR2DS2 /// KIR2DS3 /// KIR2DS4 /// KIR3DL3 /// KIR3DL3 /// KIR3DS1 (11738374_at) / Fold change /veh KIR2DL2 /// KIR2DL4 /// KIR2DL5A /// KIR2DL5B /// KIR2DS1 /// KIR2DS2 /// KIR2DS3 /// KIR2DS4 /// KIR3DL3 /// KIR3DL3 /// KIR3DS1 (11738374_at) / RFU C1QL1 (11718748_at) / Fold change /veh C1QL1 (11718748_at) / RFU TMPRSS4 (11747572_a_at) / Fold change /veh TMPRSS4 (11747572_a_at) / RFU HAMP (11756126_x_at) / Fold change /veh HAMP (11756126_x_at) / RFU RNFT2 (11725882_a_at) / Fold change /veh RNFT2 (11725882_a_at) / RFU NR4A2 (11747474_a_at) / Fold change /veh NR4A2 (11747474_a_at) / RFU ABCC12 (11746883_a_at) / Fold change /veh ABCC12 (11746883_a_at) / RFU TMEM136 (11760407_x_at) / Fold change /veh TMEM136 (11760407_x_at) / RFU CLDN22 /// WWC2 (11732394_at) / Fold change /veh CLDN22 /// WWC2 (11732394_at) / RFU HLA-DPB1 (11760878_x_at) / Fold change /veh HLA-DPB1 (11760878_x_at) / RFU SPINT1 (11716480_a_at) / Fold change /veh SPINT1 (11716480_a_at) / RFU GAP43 (11754022_s_at) / Fold change /veh GAP43 (11754022_s_at) / RFU A4GNT (11735810_at) / Fold change /veh A4GNT (11735810_at) / RFU PRB3 (11715151_x_at) / Fold change /veh PRB3 (11715151_x_at) / RFU TUBB4B (11761932_at) / Fold change /veh TUBB4B (11761932_at) / RFU CAPN14 (11732068_a_at) / Fold change /veh CAPN14 (11732068_a_at) / RFU TMCC2 (11721928_a_at) / Fold change /veh TMCC2 (11721928_a_at) / RFU IRGQ (11745062_a_at) / Fold change /veh IRGQ (11745062_a_at) / RFU FAM174B (11720279_a_at) / Fold change /veh FAM174B (11720279_a_at) / RFU TMPRSS4 (11748680_a_at) / Fold change /veh TMPRSS4 (11748680_a_at) / RFU FAM212B (11763350_a_at) / Fold change /veh FAM212B (11763350_a_at) / RFU PLEKHG5 (11743358_a_at) / Fold change /veh PLEKHG5 (11743358_a_at) / RFU ZSCAN30 (11745921_a_at) / Fold change /veh ZSCAN30 (11745921_a_at) / RFU CMKLR1 (11741424_a_at) / Fold change /veh CMKLR1 (11741424_a_at) / RFU LOC101060620 /// MAPK8IP1 (11723275_at) / Fold change /veh LOC101060620 /// MAPK8IP1 (11723275_at) / RFU SPTSSB (11747773_x_at) / Fold change /veh SPTSSB (11747773_x_at) / RFU PRSS12 (11739890_at) / Fold change /veh PRSS12 (11739890_at) / RFU BIN1 (11741810_x_at) / Fold change /veh BIN1 (11741810_x_at) / RFU WNT11 (11732464_a_at) / Fold change /veh WNT11 (11732464_a_at) / RFU C10orf10 (11716521_a_at) / Fold change /veh C10orf10 (11716521_a_at) / RFU C5orf56 (11738089_at) / Fold change /veh C5orf56 (11738089_at) / RFU CYB561 (11721691_x_at) / Fold change /veh CYB561 (11721691_x_at) / RFU ANKRD19P (11752326_a_at) / Fold change /veh ANKRD19P (11752326_a_at) / RFU OR2T12 /// OR2T33 /// OR2T8 (11738714_s_at) / Fold change /veh OR2T12 /// OR2T33 /// OR2T8 (11738714_s_at) / RFU VCAN (11748164_a_at) / Fold change /veh VCAN (11748164_a_at) / RFU JSRP1 (11732532_at) / Fold change /veh JSRP1 (11732532_at) / RFU KRTAP10-11 (11738290_x_at) / Fold change /veh KRTAP10-11 (11738290_x_at) / RFU MYO3A (11730013_a_at) / Fold change /veh MYO3A (11730013_a_at) / RFU EBF3 (11725865_a_at) / Fold change /veh EBF3 (11725865_a_at) / RFU CAMK2N1 (11719241_x_at) / Fold change /veh CAMK2N1 (11719241_x_at) / RFU C5orf56 (11738088_a_at) / Fold change /veh C5orf56 (11738088_a_at) / RFU OLFML3 (11715873_a_at) / Fold change /veh OLFML3 (11715873_a_at) / RFU LOC100653217 /// NTM (11731650_a_at) / Fold change /veh LOC100653217 /// NTM (11731650_a_at) / RFU MAPK11 (11762145_a_at) / Fold change /veh MAPK11 (11762145_a_at) / RFU FIZ1 (11724087_x_at) / Fold change /veh FIZ1 (11724087_x_at) / RFU OASL (11726364_x_at) / Fold change /veh OASL (11726364_x_at) / RFU SOX15 (11748057_x_at) / Fold change /veh SOX15 (11748057_x_at) / RFU CD79A (11719716_a_at) / Fold change /veh CD79A (11719716_a_at) / RFU HIST1H1D (11736915_at) / Fold change /veh HIST1H1D (11736915_at) / RFU CASKIN2 (11723855_a_at) / Fold change /veh CASKIN2 (11723855_a_at) / RFU LOC730098 (11760151_x_at) / Fold change /veh LOC730098 (11760151_x_at) / RFU OR4N2 (11742367_at) / Fold change /veh OR4N2 (11742367_at) / RFU PRRT2 (11749266_a_at) / Fold change /veh PRRT2 (11749266_a_at) / RFU SNX32 (11753110_a_at) / Fold change /veh SNX32 (11753110_a_at) / RFU CDHR5 (11726645_a_at) / Fold change /veh CDHR5 (11726645_a_at) / RFU RCAN1 (11760418_a_at) / Fold change /veh RCAN1 (11760418_a_at) / RFU FAM167A (11723789_a_at) / Fold change /veh FAM167A (11723789_a_at) / RFU FAM26E (11764081_at) / Fold change /veh FAM26E (11764081_at) / RFU ISYNA1 (11749810_s_at) / Fold change /veh ISYNA1 (11749810_s_at) / RFU ACY1 (11761880_at) / Fold change /veh ACY1 (11761880_at) / RFU 11764098_at / Fold change /veh 11764098_at / RFU SAMD14 (11745864_x_at) / Fold change /veh SAMD14 (11745864_x_at) / RFU NPB (11741838_a_at) / Fold change /veh NPB (11741838_a_at) / RFU TMPRSS6 (11731388_a_at) / Fold change /veh TMPRSS6 (11731388_a_at) / RFU KRTAP10-2 (11738614_at) / Fold change /veh KRTAP10-2 (11738614_at) / RFU ARHGAP8 /// PRR5-ARHGAP8 (11727945_x_at) / Fold change /veh ARHGAP8 /// PRR5-ARHGAP8 (11727945_x_at) / RFU KRTAP5-7 /// NADSYN1 (11734609_at) / Fold change /veh KRTAP5-7 /// NADSYN1 (11734609_at) / RFU RASL12 (11751679_a_at) / Fold change /veh RASL12 (11751679_a_at) / RFU CDKN2B (11736163_a_at) / Fold change /veh CDKN2B (11736163_a_at) / RFU PRF1 (11729649_at) / Fold change /veh PRF1 (11729649_at) / RFU, ZNF638 /// ZNF638-IT1 / Fold change vs veh, ZNF638 /// ZNF638-IT1 / RFU, PANK3 / Fold change vs veh, PANK3 / RFU, SH3YL1 / Fold change vs veh, SH3YL1 / RFU, ZEB2 / Fold change vs veh, ZEB2 / RFU, NRIP1 / Fold change vs veh, NRIP1 / RFU, PTTG1IP / Fold change vs veh, PTTG1IP / RFU, CAPN2 / Fold change vs veh, CAPN2 / RFU, MED14 / Fold change vs veh, MED14 / RFU, SNORA58 / Fold change vs veh, SNORA58 / RFU, C1orf63 / Fold change vs veh, C1orf63 / RFU, LRRFIP1 / Fold change vs veh, LRRFIP1 / RFU, NDUFAF7 / Fold change vs veh, NDUFAF7 / RFU, SLC12A2 / Fold change vs veh, SLC12A2 / RFU, IBTK / Fold change vs veh, IBTK / RFU, ESF1 / Fold change vs veh, ESF1 / Fold change vs veh, TMEM50B / RFU, TAOK1 / Fold change vs veh, TAOK1 / RFU, ACBD3 / Fold change vs veh, ACBD3 / RFU, TMA16 / Fold change vs veh, TMA16 / RFU, RWDD3 / Fold change vs veh, RWDD3 / RFU, BCAT1 / Fold change vs veh, BCAT1 / RFU, EDEM3 / Fold change vs veh, EDEM3 / RFU, TMEM33 / Fold change vs veh, TMEM33 / RFU, WDR75 / Fold change vs veh, WDR75 / RFU, AHCTF1 / Fold change vs veh, AHCTF1 / RFU, TFRC / Fold change vs veh, TFRC / RFU, ZDHHC17 / Fold change vs veh, ZDHHC17 / RFU, NOM1 / Fold change vs veh, NOM1 / RFU, ARL8B / Fold change vs veh, ARL8B / RFU, ZBTB11 / Fold change vs veh, ZBTB11 / RFU, TAMM41 / Fold change vs veh, TAMM41 / RFU, KIAA1704 /// LOC100996395 / Fold change vs veh, KIAA1704 /// LOC100996395 / RFU, ING1 / Fold change vs veh, ING1 / RFU, TRMT61B / Fold change vs veh, TRMT61B / RFU, FUBP3 / Fold change vs veh, FUBP3 / RFU, TP53 / Fold change vs veh, TP53 / RFU, TNKS2 / Fold change vs veh, TNKS2 / RFU, ZFP14 / Fold change vs veh, ZFP14 / RFU, ACTR2 / Fold change vs veh, ACTR2 / RFU, PPP3R1 / Fold change vs veh, PPP3R1 / RFU, PIK3R1 / Fold change vs veh, PIK3R1 / RFU, HNRNPA1 / Fold change vs veh, HNRNPA1 / RFU, RNF170 / Fold change vs veh, RNF170 / RFU, ZNF28 / Fold change vs veh, ZNF28 / RFU, RNGTT / Fold change vs veh, RNGTT / RFU, OGT / Fold change vs veh, OGT / RFU, BRD1 / Fold change vs veh, BRD1 / RFU, MARS / Fold change vs veh, MARS / RFU, ZNF655 / Fold change vs veh, ZNF655 / RFU, FAHD1 / Fold change vs veh, FAHD1 / RFU, BDP1 / Fold change vs veh, BDP1 / RFU, LRRCC1 / Fold change vs veh, LRRCC1 / RFU, ARID1A / Fold change vs veh, ARID1A / RFU, ZNF146 / Fold change vs veh, ZNF146 / RFU, ZNF330 / Fold change vs veh, ZNF330 / RFU, GPN3 / Fold change vs veh, GPN3 / RFU, C9orf123 / Fold change vs veh, C9orf123 / RFU, N4BP2L2 / Fold change vs veh, N4BP2L2 / RFU, ARFIP1 / Fold change vs veh, ARFIP1 / RFU, FAM179B / Fold change vs veh, FAM179B / RFU, BCL10 / Fold change vs veh, BCL10 / RFU, UHRF1BP1L / Fold change vs veh, UHRF1BP1L / RFU, BET1 / Fold change vs veh, BET1 / RFU, CNOT2 / Fold change vs veh, CNOT2 / RFU, ZNF268 / Fold change vs veh, ZNF268 / Fold change vs veh, ZNF507 / RFU, DGCR2 / Fold change vs veh, DGCR2 / RFU, WDSUB1 / Fold change vs veh, WDSUB1 / Fold change vs veh, HSP90B1 /// MIR3652 / RFU, ADSS / Fold change vs veh, ADSS / RFU, GK / Fold change vs veh, GK / RFU, ZNF148 / Fold change vs veh, ZNF148 / RFU, TAF9 / Fold change vs veh, TAF9 / RFU, SLC1A5 / Fold change vs veh, SLC1A5 / RFU, SLMO2 / Fold change vs veh, SLMO2 / RFU, ABCC4 / Fold change vs veh, ABCC4 / RFU, LOC101060439 /// RAP1B / Fold change vs veh, LOC101060439 /// RAP1B / RFU, RFX7 / Fold change vs veh, RFX7 / RFU, GTPBP10 / Fold change vs veh, GTPBP10 / RFU, CNEP1R1 / Fold change vs veh, CNEP1R1 / RFU, BIVM-ERCC5 /// ERCC5 / Fold change vs veh, BIVM-ERCC5 /// ERCC5 / RFU, ILF3 / Fold change vs veh, ILF3 / RFU 11762660_at / Fold change /veh 11762660_at / RFU VCAN (11757783_s_at) / Fold change /veh VCAN (11757783_s_at) / RFU DDX43 (11728927_at) / Fold change /veh DDX43 (11728927_at) / RFU KRT8 (11758188_x_at) / Fold change /veh KRT8 (11758188_x_at) / RFU NKD1 (11759106_at) / Fold change /veh NKD1 (11759106_at) / RFU SRD5A1 (11742802_a_at) / Fold change /veh SRD5A1 (11742802_a_at) / RFU TPSAB1 /// TPSB2 (11721975_s_at) / Fold change /veh TPSAB1 /// TPSB2 (11721975_s_at) / RFU GSTM3 (11746129_a_at) / Fold change /veh GSTM3 (11746129_a_at) / RFU IL23R (11737362_x_at) / Fold change /veh IL23R (11737362_x_at) / RFU TMEM51 (11727254_a_at) / Fold change /veh TMEM51 (11727254_a_at) / RFU PIWIL2 (11732686_x_at) / Fold change /veh PIWIL2 (11732686_x_at) / RFU ORM1 (11744905_x_at) / Fold change /veh ORM1 (11744905_x_at) / RFU CCDC152 (11743942_at) / Fold change /veh CCDC152 (11743942_at) / RFU ECM1 (11717891_a_at) / Fold change /veh ECM1 (11717891_a_at) / RFU IL23R (11748794_a_at) / Fold change /veh IL23R (11748794_a_at) / RFU TNFAIP8L3 (11732012_x_at) / Fold change /veh TNFAIP8L3 (11732012_x_at) / RFU MBOAT4 (11741988_at) / Fold change /veh MBOAT4 (11741988_at) / RFU 11764193_at / Fold change /veh 11764193_at / RFU TMEM53 (11763286_at) / Fold change /veh TMEM53 (11763286_at) / RFU MAGEB2 (11727129_at) / Fold change /veh MAGEB2 (11727129_at) / RFU TMEM200A (11744735_a_at) / Fold change /veh TMEM200A (11744735_a_at) / RFU CCDC152 (11751479_a_at) / Fold change /veh CCDC152 (11751479_a_at) / RFU FAM211A (11726209_a_at) / Fold change /veh FAM211A (11726209_a_at) / RFU RGS16 (11746705_a_at) / Fold change /veh RGS16 (11746705_a_at) / RFU VCAN (11755009_s_at) / Fold change /veh VCAN (11755009_s_at) / RFU RHOB (11743442_s_at) / Fold change /veh RHOB (11743442_s_at) / RFU RGS16 (11720943_a_at) / Fold change /veh RGS16 (11720943_a_at) / RFU RGS16 (11720944_at) / Fold change /veh RGS16 (11720944_at) / RFU, VPS4B / Fold change vs veh, VPS4B / RFU, CREB1 / Fold change vs veh, CREB1 / RFU, DNAJC13 / Fold change vs veh, DNAJC13 / RFU, GNAQ / Fold change vs veh, GNAQ / RFU, CDK5R1 / Fold change vs veh, CDK5R1 / RFU, ZRANB3 / Fold change vs veh, ZRANB3 / RFU, CUL4A / Fold change vs veh, CUL4A / RFU, CCNY / Fold change vs veh, CCNY / RFU, UFL1 / Fold change vs veh, UFL1 / RFU, COG3 / Fold change vs veh, COG3 / RFU, DIAPH2 / Fold change vs veh, DIAPH2 / RFU, SKA2 / Fold change vs veh, SKA2 / RFU, AFF3 / Fold change vs veh, AFF3 / RFU, LMF1 / Fold change vs veh, LMF1 / RFU, IPO11 / Fold change vs veh, IPO11 / RFU, DFFB / Fold change vs veh, DFFB / RFU, FOXP1 / Fold change vs veh, FOXP1 / RFU, CARD8 / Fold change vs veh, CARD8 / RFU, STRN3 / Fold change vs veh, STRN3 / RFU, ADK / Fold change vs veh, ADK / RFU, RASSF2 / Fold change vs veh, RASSF2 / RFU, WIPF1 / Fold change vs veh, WIPF1 / RFU, LARP1B / Fold change vs veh, LARP1B / RFU, RASA1 / Fold change vs veh, RASA1 / RFU, RB1 / Fold change vs veh, RB1 / RFU, PPFIA1 / Fold change vs veh, PPFIA1 / RFU, MAT2A / Fold change vs veh, MAT2A / RFU, CCT5 / Fold change vs veh, CCT5 / RFU, WDR92 / Fold change vs veh, WDR92 / RFU, CUX1 / Fold change vs veh, CUX1 / RFU, TTC7A / Fold change vs veh, TTC7A / RFU, TMEM135 / Fold change vs veh, TMEM135 / RFU, DEPTOR / Fold change vs veh, DEPTOR / RFU, CPM / Fold change vs veh, CPM / RFU, DNAJB6 / Fold change vs veh, DNAJB6 / RFU, CACNA2D3 / Fold change vs veh, CACNA2D3 / RFU, DTX4 / Fold change vs veh, DTX4 / RFU, TFCP2 / Fold change vs veh, TFCP2 / RFU, GMCL1 /// GMCL1P1 / Fold change vs veh, GMCL1 /// GMCL1P1 / RFU, AEBP2 / Fold change vs veh, AEBP2 / RFU, SNHG1 /// SNORD22 /// SNORD25 /// SNORD26 /// SNORD27 /// SNORD28 /// SNORD29 /// SNORD31 / Fold change vs veh, SNHG1 /// SNORD22 /// SNORD25 /// SNORD26 /// SNORD27 /// SNORD28 /// SNORD29 /// SNORD31 / Fold change (Aza/veh), C12orf56 (ProbeSet 11735607_a_at) / Fold change (ACY-1035/veh), C12orf56 (ProbeSet 11735607_a_at) / Fold change (Aza/veh), FGFR1OP (ProbeSet 11751329_s_at) / Fold change (ACY-1035/veh), FGFR1OP (ProbeSet 11751329_s_at) / Fold change (Aza/veh), VPS36 (ProbeSet 11739960_a_at) / Fold change (ACY-1035/veh), VPS36 (ProbeSet 11739960_a_at) / RFU SYPL1 (11715823_x_at) / Fold change /veh SYPL1 (11715823_x_at) / RFU IGFBP7 (11715501_s_at) / Fold change /veh IGFBP7 (11715501_s_at) / RFU REEP3 (11722064_at) / Fold change /veh REEP3 (11722064_at) / RFU IGLL1 (11728026_x_at) / Fold change /veh IGLL1 (11728026_x_at): dose or concentration left out as unconfirmed
Settings: ProbeSet 11724526_at; LIST B

`Nc1ncn([C@@H]2O[C@H](CO)[C@@H](O)[C@H]2O)c(=O)n1` [azacitidine] was tested, and the “RFU, FAHD1” value was 119.69 RFU.
